Laboratory results published in patent US20020077491A1, “Methods for forming combinatorial libraries combining amide bond formation with epoxide opening” (priority 2000, published 2002).
Where “and” joins values, the source holds several entries; their conditions need not be identical. Equal values may be shown once.

Legend:
[1] = target: T1, E. coli dihydrofolate reductase (DHFRec) (Escherichia coli, UniProt P0ABQ4); assay: ALIS affinity selection-mass spectrometry with E. coli DHFR; assay type: binding
T1 construct: made in house
Description: (§1) Utilizing the ALIS techniques described above, the affinity of ligands for DHFRec was compared to the affinity of the same ligands for the bovine (B. taurus) DHFR enzyme.

[2] = system: E. coli BL21(DE3); assay: Determination of antibacterial activity (inhibition of bacterial growth, absorbance at 600 nm); assay type: cell-based; conditions: Escherichia coli, 24 hours at 37° C.
Procedure: Protocols for the measurement of IC50 for the evaluation of antibacterial activity followed standard methods [Antibiotics in Laboratory Medicine, V. Lorian, Ed. Fourth edition, 1996. Williams and Wilkins; Baltimore, Md.]. Briefly, purified (S)-29, antibiotic control, or vehicle (DMSO) was subjected to serial dilution into Luria-Bertani growth medium in a manner that placed 0.1 mL aliquots of medium-plus-vehicle or medium-plus-antibiotic into each well of a sterile polystyrene 96-well plate. To aid compound dissolution, medium-analyte mixtures were warmed to 37° C. for eight hours with agitation. Bacterial cells, [E. coli: hsdS gal (λcIts857 ind 1 Sam7 nin5 lacUV5-T7 gene 1); BL21(DE3)] were grown in to mid-log phase at 37° C. The culture was then diluted 1:10^5 into prewarmed growth medium. Aliquots of diluted bacterial culture (0.1 mL) were then combined with the pre-aliquotted medium-analyte mixtures to yield 0.2 mL inoculated cultures containing no more than 2.5% DMSO. The plated inoculate series were then grown for twenty-four hours at 37° C. with orbital shaking. Bacterial cell growth was quantitated by measuring absorbance at 600 nm. IC50 for the inhibition of bacterial growth was defined as the concentration of drug at which cell growth was half maximal at twenty-four hours.

[3] = target: T2, bovine (B. taurus) DHFR enzyme (Bos taurus, UniProt P00376); assay: ALIS affinity selection with bovine DHFR; assay type: binding; conditions: FIG. 9
T2 sequence (P00376 1-187): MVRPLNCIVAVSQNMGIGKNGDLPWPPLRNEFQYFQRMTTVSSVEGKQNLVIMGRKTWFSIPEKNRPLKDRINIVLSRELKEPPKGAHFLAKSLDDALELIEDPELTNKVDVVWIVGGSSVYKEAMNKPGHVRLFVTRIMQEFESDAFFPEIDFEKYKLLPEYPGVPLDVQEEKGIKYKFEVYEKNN
Description: as §1

Row | SMILES | ligand identified by affinity selection LC-MS-MS ([1]; sublibrary from Core 6 with building blocks 15 and 21) | IC50 [2] | affinity for DHFRec (ALIS) ([1]; E. coli enzyme, FIG. 9) | specificity for E. coli DHFR over bovine DHFR ([1]; pathogen vs. host DHFR, FIG. 9) | affinity for bovine (B. taurus) DHFR (ALIS) [3]
1 | COc1ccc([C@@H](C)NCC(O)COc2cc(C(=O)N3CCN(c4cccc(Cl)c4)CC3)on2)cc1 (some centres unmarked) [Core 29] | matched that assigned to regioisomer 29 | – | – | – | –
2 | COc1ccc([C@@H](C)NC[C@H](O)COc2cc(C(=O)N3CCN(c4cccc(Cl)c4)CC3)on2)cc1 [(S)-29] | – | 56 µM and 29 µg/mL | selectively binds to the E. coli enzyme | exhibits specificity for E. coli DHFR over bovine (B. taurus) DHFR | no detectable affinity
